Assay [1] has as its system GM3 expression on the cell surface, B16 mouse melanoma cells. The assay can be described thus: cell based phenotypic assay, cell surface GM3 by antibody mediated immunofluorescence, B16 (GM3 B16 IC50). As to conditions: 50% inhibition of GM3 expression on the cell surface. An outline of the steps:
(§1)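 Both lines undergo the phenotypic GM3 assay, and viability is recorded from that same cell-based run.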

In another assay the test system is B16 mouse melanoma cells. The assay can be described thus: cell viability in the B16 cell-based assay (Viability, B16 IC50). The procedure, abridged: (§2)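 Viability readouts were run alongside the GM3 cell-surface assay in the same B16 and C32 cultures. A figure above 10 indicates no cell death.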
Assay [2] addresses T1, glucosylceramide synthase (Homo sapiens, UniProt Q16739).
T1 construct: Microsomes were isolated from A375 human melanoma cells; endogenous in cells; host or cells: A375 human melanoma cells (microsomal fraction, 100,000 g pellet)
T1 sequence (Q16739 1-394): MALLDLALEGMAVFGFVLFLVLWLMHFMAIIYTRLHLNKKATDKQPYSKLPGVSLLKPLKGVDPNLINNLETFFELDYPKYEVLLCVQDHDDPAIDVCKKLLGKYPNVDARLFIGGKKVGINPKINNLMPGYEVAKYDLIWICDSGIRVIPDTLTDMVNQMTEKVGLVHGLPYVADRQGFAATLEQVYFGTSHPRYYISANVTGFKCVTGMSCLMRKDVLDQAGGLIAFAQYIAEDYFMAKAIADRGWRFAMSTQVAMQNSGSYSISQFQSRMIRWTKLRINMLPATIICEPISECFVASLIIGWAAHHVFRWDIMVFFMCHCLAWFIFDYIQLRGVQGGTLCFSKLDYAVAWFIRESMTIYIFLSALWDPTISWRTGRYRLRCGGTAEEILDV
Kind of assay: microsomal assay measuring conversion of ceramide to glucosylceramide by HPLC (GCS IC50). As to conditions: concentration causing 50% inhibition of glucosylceramide synthase activity. Format: biochemical. The procedure, abridged:
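IC50 is the compound concentration halving glucosylceramide synthase activity. Activity was measured in microsomes, with HPLC quantifying glucosylceramide formed from ceramide.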

Assay [3] relates to GM3 expression on the cell surface, C32 human melanoma cells. Kind of assay: cell based phenotypic assay, cell surface GM3 by antibody mediated immunofluorescence, C32 (GM3 C32 IC50). As to conditions: 50% inhibition of GM3 expression on the cell surface. The procedure, abridged:
as §1

The next assay relates to C32 human melanoma cells. The assay can be described thus: cell viability in the C32 cell-based assay (Viability, C32 IC50). The following applies: concentration causing 50% cell death, values greater than 10 represent a lack of cell death. An outline of the steps:
as §2

Setting [4] is: Mus musculus, B16 mouse melanoma cells, read-out: GM3 B16 IC50.
[5] abbreviates: Mus musculus, B16, B16 cells, concentration causing 50% cell death, values greater than 10 represent a lack of cell death, read-out: Viability, B16 IC50.
Where [6] appears, read: Homo sapiens, C32 human melanoma cells, read-out: GM3 C32 IC50.
The mark [7] stands for this setting: Homo sapiens, C32, C32 cells, read-out: Viability, C32 IC50.
The mark [8] stands for this setting: Mus musculus, read-out: GM3 B16 IC50, B16 mouse melanoma cells.
The mark [9] stands for this setting: Mus musculus, B16, read-out: Viability, B16 IC50.
Where [10] appears, read: Homo sapiens, read-out: GM3 C32 IC50, C32 human melanoma cells.
Setting [11] is: Homo sapiens, C32, read-out: Viability, C32 IC50, C32 cells.

Where two headings read alike, the source gives them in different places.

Here are results for 16 compounds from US12060349B2, “Glucosylceramide synthase inhibitors” (Genzyme Corporation, priority 2012, dated 2024).

What is called IC50 is the concentration that inhibits the measured activity by half. On to `CC(C)(NC(=O)N1CCN2CCC1CC2)c1ccc(-c2ccc(CN3CCOCC3)cc2)cc1` [Example 230, N-(2-(4′-(Morpholinomethyl)-[1,1′-biphenyl]-4-yl)propan-2-yl)-1,4-diazabicyclo[3.2.2]nonane-4-carboxamide], for which the IC50 in assay [1] (setting [4]) is 1790 nM; in the assay on B16 mouse melanoma cells (setting [5]), at least 10000 nM; in assay [2], 2280 nM; in assay [3] (setting [6]), 417 nM; in the assay with C32 human melanoma cells (setting [7]) it was at least 10000 nM.

Regarding `CC1(NC(=O)N2CCC(c3ccc(-c4ccccc4)cc3)CC2)CCN2CCC1CC2` (centres unmarked) [Example 53, 4-([1,1′-Biphenyl]-4-yl)-N-(4-methyl-1-azabicyclo[3.2.2]nonan-4-yl)piperidine-1-carboxamide], the IC50 in assay [1] (setting [4]) is 1240 nM; in the assay on B16 mouse melanoma cells (setting [5]), 6740 nM; in assay [2] it was 2210 nM; in assay [3] (setting [6]), 175 nM; in the assay with C32 human melanoma cells (setting [7]), 6290 nM.

In the case of `CC1CN(C(=O)NC2(C)CCN3CCC2CC3)CCN1c1cccc(-c2ccccc2)c1` (centres unmarked) [Example 31, 4-([1,1′-Biphenyl]-3-yl)-3-methyl-N-(4-methyl-1-azabicyclo[3.2.2]nonan-4-yl)piperazine-1-carboxamide], the IC50 in assay [1] (setting [4]) amounted to 70.7 nM; in the assay on B16 mouse melanoma cells (setting [5]), 7620 nM; in assay [2], 4.06 nM; in assay [3] (setting [6]) it was 1.51 nM; in the assay with C32 human melanoma cells (setting [7]), 1000 nM.

For “Quinuclidin-3-yl (2-(4′-(2-methoxyethoxy)-[1,1′-biphenyl]-3-yl)propan-2-yl)carbamate [Example 175]”, the IC50 in assay [1] (B16 mouse melanoma cells, read-out: GM3 B16 IC50) was 71.3 nM; with B16 mouse melanoma cells (B16 cells, concentration causing 50% cell death, values greater than 10 represent a lack of cell death, read-out: Viability, B16 IC50), at least 10000 nM; in assay [2], 2.5 nM; in assay [3] (C32 human melanoma cells, read-out: GM3 C32 IC50) it was 1.87 nM; in the assay with C32 human melanoma cells (C32 cells, read-out: Viability, C32 IC50), 9000 nM.

On to `CC1(NC(=O)C2CCN(c3cncc(-c4ccc(F)cc4)c3)CC2)CCN2CCC1CC2` (centres unmarked) [Example 107, 1-(5-(4-Fluorophenyl)pyridin-3-yl)-N-(4-methyl-1-azabicyclo[3.2.2]nonan-4-yl)piperidine-4-carboxamide], for which the IC50 in assay [1] (setting [4]) is 299 nM; in the assay on B16 mouse melanoma cells (setting [5]) it was at least 10000 nM; in assay [2], 4.76 nM; in assay [3] (setting [6]), 0.935 nM; in the assay with C32 human melanoma cells (setting [7]), 78.5 nM.

Take `CC(C)(NC(=O)N1CCN2CCC1CC2)c1ccc(-c2ccc(OCCCn3ccnn3)cc2)cc1` [Example 188, N-(2-(4′-(3-(1H-1,2,3-Triazol-1-yl)propoxy)-[1,1′-biphenyl]-4-yl)propan-2-yl)-1,4-diazabicyclo[3.2.2]nonane-4-carboxamide]: the IC50 is 365 nM in assay [1] (setting [4]); at least 10000 nM with B16 mouse melanoma cells (setting [5]); 597 nM in assay [2]; 77.4 nM in assay [3] (setting [6]); 1000 nM with C32 human melanoma cells (setting [7]).

For the compound `CC1(NC(=O)C2CCN(c3nccc(-c4ccc(F)cc4)n3)CC2)CCN2CCC1CC2` (centres unmarked) [Example 41, 1-(4-(4-Fluorophenyl)pyrimidin-2-yl)-N-(4-methyl-1-azabicyclo[3.2.2]nonan-4-yl)piperidine-4-carboxamide], the IC50 in assay [1] (setting [4]) turned out to be 9.7 nM; with B16 mouse melanoma cells (setting [5]), 6440 nM; in assay [2], 1.14 nM; in assay [3] (setting [6]), 0.124 nM; with C32 human melanoma cells (setting [7]), 20 nM.

`CCCC1(NC(=O)NC(C)(C)c2ccc(-c3ccc(CCO)cc3)cc2)CN2CCC1CC2` (centres unmarked) [Example 224, 1-(2-(4′-(2-Hydroxyethyl)-[1,1′-biphenyl]-4-yl)propan-2-yl)-3-(3-propylquinuclidin-3-yl)urea]: the 50% inhibitory concentration (IC50) in assay [1] (setting [4]) was 64.3 nM; in the assay with B16 mouse melanoma cells (setting [5]), at least 10000 nM; in assay [2], 20.2 nM; in assay [3] (setting [6]), 1.6 nM; in the assay on C32 human melanoma cells (setting [7]), at least 10000 nM.

Take `COCCCOc1ccc(-c2ccc(C3(NC(=O)OC4CCN5CCC4CC5)CC3)cc2)cc1` (centres unmarked) [Example 178, 1-Azabicyclo[3.2.2]nonan-4-yl (1-(4′-(3-methoxypropoxy)-[1,1′-biphenyl]-4-yl)cyclopropyl)carbamate]: the IC50 in assay [1] (setting [4]) was 67.9 nM; in the assay on B16 mouse melanoma cells (setting [5]), at least 10000 nM; in assay [2], 3.54 nM; in assay [3] (setting [6]), 2.61 nM; in the assay on C32 human melanoma cells (setting [7]), 7100 nM.

As to `CC(C)(NC(=O)OC1CCN2CCC1CC2)c1cccc(Oc2cccc(C(=O)N3CCOCC3)c2)c1` (centres unmarked) [Example 278, 1-Aza-bicyclo[3.2.2]nonan-4-yl 2-(3-(3-(morpholine-4-carbonyl)phenoxy)phenyl)propan-2-ylcarbamate], the IC50 in assay [1] (setting [4]) is 1440 nM; with B16 mouse melanoma cells (setting [5]), at least 10000 nM; in assay [2] it was 593 nM; in assay [3] (setting [6]), 53 nM; in the assay with C32 human melanoma cells (setting [7]) it was at least 10000 nM.

As to `COCCOCc1ccc(-c2ccc(C(C)(C)NC(=O)OC3CN4CCC3CC4)cc2)cc1` (centres unmarked) [Example 197, Quinuclidin-3-yl (2-(4′-((2-methoxyethoxy)methyl)-[1,1′-biphenyl]-4-yl)propan-2-yl)carbamate], the IC50 in assay [1] (setting [8]) is 309 nM; with B16 mouse melanoma cells (setting [9]), at least 10000 nM; in assay [2], 32.2 nM; in assay [3] (setting [10]), 9.67 nM; with C32 human melanoma cells (setting [11]) it was at least 10000 nM.

Turning to `COCCOc1ccc(-c2ccc(C(C)(C)NC(=O)N[C@@]3(C)CN4CCC3CC4)cc2)cc1` [Example 157, (R)-1-(2-(4′-(2-Methoxyethoxy)-[1,1′-biphenyl]-4-yl)propan-2-yl)-3-(3-methylquinuclidin-3-yl)urea], the IC50 is 538 nM in assay [1] (setting [4]); 3160 nM in the assay with B16 mouse melanoma cells (setting [5]); 228 nM in assay [2]; 42 nM in assay [3] (setting [6]); 3160 nM in the assay on C32 human melanoma cells (setting [7]).

As for `COCCCS(=O)(=O)c1ccc(-c2ccc(C(C)(C)NC(=O)OC3CN4CCC3CC4)cc2)cc1` (centres unmarked) [Example 242, Quinuclidin-3-yl (2-(4′-((3-methoxypropyl)sulfonyl)-[1,1′-biphenyl]-4-yl)propan-2-yl)carbamate], the IC50 in assay [1] (setting [8]) was 82.5 nM; with B16 mouse melanoma cells (setting [9]) it was at least 10000 nM; in assay [2], 32.5 nM; in assay [3] (setting [10]), 10.2 nM; in the assay on C32 human melanoma cells (setting [11]), 3160 nM.

`CC1CN(C(=O)NC2(C)CCN3CCC2CC3)CCN1c1nccc(-c2ccc(F)cc2)n1` (centres unmarked) [Example 145, 4-(4-(4-Fluorophenyl)pyrimidin-2-yl)-3-methyl-N-(4-methyl-1-azabicyclo[3.2.2]nonan-4-yl)piperazine-1-carboxamide]: the IC50 in assay [1] (setting [4]) amounted to 76.3 nM; with B16 mouse melanoma cells (setting [5]), 6980 nM; in assay [2] it was 8.01 nM; in assay [3] (setting [6]), 0.507 nM; in the assay on C32 human melanoma cells (setting [7]), 316 nM.

With `CC1(NC(=O)C2(F)CCN(c3nccc(Oc4ccc(C#N)cc4)n3)CC2)CN2CCC1CC2` (centres unmarked) [Example 119, 1-(4-(4-Cyanophenoxy)pyrimidin-2-yl)-4-fluoro-N-(3-methylquinuclidin-3-yl)piperidine-4-carboxamide], the IC50 in assay [1] (setting [4]) was 54.4 nM; with B16 mouse melanoma cells (setting [5]), at least 10000 nM; in assay [2], 6.71 nM; in assay [3] (setting [6]) it was 0.476 nM; in the assay on C32 human melanoma cells (setting [7]), 316 nM.

With `COCc1ccc(-c2ccnc(N3CCC(C(=O)NC4(C)CCN5CCC4CC5)CC3)n2)cc1` (centres unmarked) [Example 70, 1-(4-(4-(Methoxymethyl)phenyl)pyrimidin-2-yl)-N-(4-methyl-1-azabicyclo[3.2.2]nonan-4-yl)piperidine-4-carboxamide], the IC50 in assay [1] (setting [4]) amounted to 15.6 nM; in the assay on B16 mouse melanoma cells (setting [5]), 1000 nM; in assay [2], 3.96 nM; in assay [3] (setting [6]), 0.0905 nM; in the assay on C32 human melanoma cells (setting [7]), 1000 nM.
